Reference: US20230321123A1, “INHIBITORS OF PSEUDOMONAS AERUGINOSA VIRULENCE FACTOR LasB” (Helmholtz-Zentrum Für Infektionsforschung GmbH, priority 2020, published 2023)

Biological target: LasB (Pseudomonas aeruginosa, UniProt Q02RJ6)
Assay: biochemical
Set-up: species or system P. aeruginosa
Conditions: @ 50 μm

Sequence of LasB (Q02RJ6 198-498): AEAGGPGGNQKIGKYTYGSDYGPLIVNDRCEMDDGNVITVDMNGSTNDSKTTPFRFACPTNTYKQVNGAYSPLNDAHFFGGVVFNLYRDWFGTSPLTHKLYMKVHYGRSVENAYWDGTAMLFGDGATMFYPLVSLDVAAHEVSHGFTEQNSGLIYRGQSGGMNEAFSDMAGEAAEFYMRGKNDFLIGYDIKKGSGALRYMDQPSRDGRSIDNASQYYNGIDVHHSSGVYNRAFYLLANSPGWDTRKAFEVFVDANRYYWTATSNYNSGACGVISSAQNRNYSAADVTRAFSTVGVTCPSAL

Row | SMILES | inhibition of LasB [% inhibition @ 50 μm]
1 | O=C(CP(=O)(O)O)Nc1ccc(-c2ccc(Cl)cc2)cn1 [Example 90] | 31

Same assay, conditions: IC50 against LasB

Row | SMILES | IC50 [nM]
2 | CC(C)CC(S)C(=O)Nc1ccccc1O (centres unmarked) [Example 40] | 1400 ± 200
3 | CC(C)CC(C(=O)NC12CC(C(=O)Nc3ccc(Cl)c(Cl)c3)(C1)C2)P(=O)(O)O (centres unmarked) [Example 151, (1-((3-((3,4-Dichlorophenyl)carbamoyl)bicyclo[1.1.1]pentan-1-yl)amino)-4-methyl-1-oxopentan-2-yl)phosphonic acid] | 347 ± 12
4 | CCCC(S)C(=O)Nc1ccc(OC)cc1 (centres unmarked) [Example 27] | 2400 ± 600
5 | Cc1ccc(NC(=O)C(CC(C)C)P(=O)(O)O)c(F)c1 (centres unmarked) [Example 65] | 116 ± 16
6 | O=C(Nc1nc2ccccc2[nH]1)C(S)Cc1ccccc1 (centres unmarked) [Example 61] | 7700 ± 1400
7 | O=C(Nc1ccccc1)C(S)Cc1ccccc1 (single isomer, unassigned) [Example 1 E1, 2-Mercapto-N,3-diphenylpropanamide] | 4800 ± 700
8 | O=C(Nc1ccccc1)C(S)Cc1ccccc1 (single isomer, unassigned) [Example 1 E2, 2-Mercapto-N,3-diphenylpropanamide] | 1000 ± 100
9 | CC(C)CC(S)C(=O)Nc1ccc(Cl)cc1 (centres unmarked) [Example 38] | 840 ± 240
10 | CC(C)CC(C(=O)Nc1ccc(C(N)=O)nc1)P(=O)(O)O (centres unmarked) [Example 84] | 223 ± 16
11 | CC(C)CC(C(=O)N[C@@H](CC1CCCCC1)C(=O)Nc1ccc(Cl)c(Cl)c1)P(=O)(O)O (some centres unmarked) [Example 158] | 242 ± 21
12 | CC(C)CC(C(=O)Nc1cccc2ccccc12)P(=O)(O)O (centres unmarked) [Example 75] | 69 ± 8
13 | COc1ccc(NC(=O)C(S)CC(C)C)cc1 (centres unmarked) [Example 34] | 360 ± 110
14 | CC(C)CC(C(=O)Nc1ccc(C(F)(F)F)cc1)P(=O)(O)O (centres unmarked) [Example 68] | 26 ± 8
15 | CC(C)C[C@H](C(=O)N[C@@H](Cc1ccccn1)C(=O)Nc1ccc(Cl)c(Cl)c1)P(=O)(O)O [Example 162] | 416 ± 23
16 | COC(=O)c1ccc(NC(=O)C(CC(C)C)P(=O)(O)O)cn1 (centres unmarked) [Example 85] | 194 ± 11
17 | CC(C)CC(C(=O)N[C@@H](CC1CC1)C(=O)Nc1ccc(Cl)c(Cl)c1)P(=O)(O)O (some centres unmarked) [Example 164] | 27 ± 1
18 | CC(C)CC(C(=O)Nc1ccc(C#N)cc1)P(=O)(O)O (centres unmarked) [Example 73] | 25 ± 1
19 | CC(C)CC(C(=O)N1CCN(Cc2ccc(-c3ccc(Cl)cc3)cc2)CC1)P(=O)(O)O (centres unmarked) [Example 150] | 8660 ± 1110
20 | CC(C)CC(C(=O)Nc1ccc(F)cc1)P(=O)(O)O (centres unmarked) [Example 70] | 93 ± 22
21 | CC(C)CC(C(=O)Nc1ccc(NS(=O)(=O)c2ccc3c(c2)CN(C(=O)C(F)(F)F)CC3)cc1)P(=O)(O)O (centres unmarked) [Example 115] | 57 ± 3
22 | CC(C)CC(C(=O)Nc1ccc2c(c1)CCC2)P(=O)(O)O (centres unmarked) [Example 77] | 44 ± 4
23 | O=C(Nc1ccc([N+](=O)[O-])cc1)C(S)Cc1ccccc1 (centres unmarked) [Example 9] | 970 ± 100
24 | O=C(Nc1ccc(C(F)(F)F)cc1)C(Cc1ccccc1)P(=O)(O)O (centres unmarked) [Example 79] | 102 ± 1
25 | CC(C)CC(C(=O)N1CCC[C@H]1C(=O)Nc1ccc(Cl)c(Cl)c1)P(=O)(O)O (some centres unmarked) [Example 166] | 2540 ± 69
26 | CC(C)CC(C(=O)Nc1ccc(NC(=O)C(Cc2ccccc2)c2ccccc2)cc1)P(=O)(O)O (centres unmarked) [Example 120] | 30 ± 1
27 | CCCCC(S)C(=O)Nc1ccc(OC)cc1 (centres unmarked) [Example 30] | 2800 ± 300
28 | CC(C)CC(S)C(=O)Nc1ccc(Cl)c(Cl)c1 (centres unmarked) [Example 31] | 2600 ± 200

Row | SMILES | IC50 [nM]
29 | CC(C)CC(C(=O)NC1CCN(Cc2ccc(Cl)cc2)CC1)P(=O)(O)O (centres unmarked) [Example 146] | 2270 ± 70
30 | COc1cccc(NC(=O)C(S)CC(C)C)c1 (centres unmarked) [Example 33] | 560 ± 30
31 | COCC(S)C(=O)Nc1ccc(OC)cc1 (centres unmarked) [Example 50] | 17000 ± 1000
32 | CC(C)CC(C(=O)Nc1ccc(Cl)c(Cl)c1)P(=O)(O)O (centres unmarked) [Example 64] | 26 ± 4
33 | CC(C)CC(C(=O)Nc1ccc(Cl)nc1)P(=O)(O)O (centres unmarked) [Example 83] | 1130 ± 20
34 | COCC(S)C(=O)Nc1ccc(Cl)c(Cl)c1 (centres unmarked) [Example 49] | 2400 ± 600
35 | CC(C)CC(C(=O)N[C@H]1CCCN(Cc2ccc(Cl)cc2)C1)P(=O)(O)O (mixture of isomers) [Example 147, (1-(((S)-1-(4-Chlorobenzyl)piperidin-3-yl)amino)-4-methyl-1-oxopentan-2-yl)phosphonic acid] | 5180 ± 530
36 | COc1ccc(NC(=O)C(S)C(C)C)cc1 (centres unmarked) [Example 22] | 16000 ± 1000
37 | CC(C)CC(C(=O)N[C@@H](C)C(=O)Nc1ccc(Cl)c(Cl)c1)P(=O)(O)O (some centres unmarked) [Example 153] | 62 ± 2
38 | CC(C)CC(C(=O)Nc1ccc(NC(=O)c2ccc(Cl)c(Cl)c2)cc1)P(=O)(O)O (centres unmarked) [Example 118] | 25 ± 1
39 | COc1ccc2nc(NC(=O)C(S)Cc3ccccc3)sc2c1 (centres unmarked) [Example 56] | 950 ± 80
40 | CC(C)CC(C(=O)N[C@@H](Cc1ccccc1)C(=O)Nc1ccc(Cl)c(Cl)c1)P(=O)(O)O (some centres unmarked) [Example 157] | 427 ± 48
41 | CCC(S)C(=O)Nc1ccc(C(C)=O)cc1 (centres unmarked) [Example 20] | 10000 ± 2000
42 | CC(C)CC(C(=O)Nc1cnc(Cl)nc1)P(=O)(O)O (centres unmarked) [Example 86] | 498 ± 25
43 | CC(C)CC(C(=O)Nc1ccc2ccccc2c1)P(=O)(O)O (centres unmarked) [Example 76] | 64 ± 10
44 | O=C(Nc1nc2ccccc2s1)C(S)Cc1ccccc1 (centres unmarked) [Example 55] | 750 ± 70
45 | CC(S)C(=O)Nc1ccc(Cl)c(Cl)c1 (centres unmarked) [Example 15] | 4500 ± 700
46 | CCCC(S)C(=O)Nc1ccc(C(C)=O)cc1 (centres unmarked) [Example 28] | 2600 ± 500
47 | CCCC(S)C(=O)Nc1ccccc1 (centres unmarked) [Example 24] | 4800 ± 400
48 | CC(C)CC(C(=O)N[C@@H](CC(C)C)C(=O)Nc1ccc(Cl)c(Cl)c1)P(=O)(O)O (some centres unmarked) [Example 155] | 60 ± 2
49 | CCCC(S)C(=O)Nc1ccc(Cl)c(Cl)c1 (centres unmarked) [Example 26] | 4000 ± 600
50 | CC(C)C[C@H](C(=O)N[C@@H](Cc1cccnc1)C(=O)Nc1ccc(Cl)c(Cl)c1)P(=O)(O)O [Example 160] | 573 ± 16
51 | CC(=O)c1ccc(NC(=O)C(CC(C)C)P(=O)(O)O)cc1 (centres unmarked) [Example 67] | 40 ± 12
52 | COc1ccc(NC(=O)C(CC(C)C)P(=O)(O)O)cc1 (centres unmarked) [Example 66] | 52 ± 10
53 | CC(=O)c1ccc(NC(=O)C(C)S)cc1 (centres unmarked) [Example 17] | 89000 ± 9000
54 | CC(=O)c1ccc(NC(=O)C(S)C(C)C)cc1 (centres unmarked) [Example 23] | 22000
55 | CC(=O)c1ccc(NC(=O)C(S)CC(C)C)cc1 (centres unmarked) [Example 39] | 690 ± 340

Row | SMILES | IC50 [nM]
56 | CC(C)CC(C(=O)Nc1ccc(Br)cc1)P(=O)(O)O (centres unmarked) [Example 72] | 49 ± 2
57 | CC(C)CC(C(=O)Nc1ccc(S(=O)(=O)C(F)(F)F)cc1)P(=O)(O)O (centres unmarked) [Example 74] | 28 ± 6
58 | CCC(C)C(S)C(=O)Nc1ccc(Cl)c(Cl)c1 (centres unmarked) [Example 43] | 7500 ± 200
59 | CC(C)CC(C(=O)N[C@@H](CC1CCOCC1)C(=O)Nc1ccc(Cl)c(Cl)c1)P(=O)(O)O (some centres unmarked) [Example 169] | 378 ± 8
60 | COc1ccc(NC(=O)C(S)CC2CCCCC2)cc1 (centres unmarked) [Example 48] | 2600 ± 1200
61 | CC(C)C(CC(=O)N1CCN(Cc2ccc(-c3ccc(Cl)cc3)cc2)CC1)P(=O)(O)O (centres unmarked) [Example 149] | 7280 ± 960
62 | COc1ccc(NC(=O)C(C)S)cc1 (centres unmarked) [Example 16] | 45000 ± 1000
63 | CCCC(S)C(=O)Nc1ccc(C)cc1 (centres unmarked) [Example 25] | 2000 ± 200
64 | CC(C)CC(C(=O)Nc1ccc(Cl)c(Cl)c1)n1nccn1 (centres unmarked) [Example 178] | 5500 ± 200
65 | CC(C)CC(C(=O)NCC(=O)Nc1ccc(Cl)c(Cl)c1)P(=O)(O)O (centres unmarked) [Example 163] | 1756 ± 3
66 | CC(C)CC(C(=O)N1CCN(c2ncc(Br)cn2)CC1)P(=O)(O)O (centres unmarked) [Example 102] | 35800 ± 1750
67 | CC(C)CC(C(=O)Nc1ccc(Cl)cc1)P(=O)(O)O (centres unmarked) [Example 71] | 48 ± 4
68 | O=C(Nc1ccc(C(F)(F)F)cc1)C(CC1CCCCC1)P(=O)(O)O (centres unmarked) [Example 81] | 1870 ± 30
69 | CC(C)CC(C(=O)Nc1ccc(NC(=O)c2ccc(Cl)c(Cl)c2)cc1)P(=O)(O)O (centres unmarked) [Example 137] | 41 ± 3
70 | Cc1ccc(NC(=O)C(Cc2ccccc2)P(=O)(O)O)cc1 (centres unmarked) [Example 78] | 137 ± 33
71 | CC(C)CC(S)C(=O)Nc1nc2ccccc2s1 (centres unmarked) [Example 62] | 650 ± 140
72 | CC(C)C(S)C(=O)Nc1ccc(Cl)c(Cl)c1 (centres unmarked) [Example 21] | 2500 ± 300
73 | CC(C)CC(C(=O)Nc1ccc(Cl)c(Cl)c1)n1ccnn1 (centres unmarked) [Example 175] | 4300 ± 200
74 | CC(C)CC(C(=O)Nc1ccc(OCc2ccc(Cl)c(Cl)c2)cc1)n1ccnn1 (centres unmarked) [Example 176] | 45600
75 | CC(C)C[C@@H](C(=O)N[C@@H](Cc1ccccn1)C(=O)Nc1ccc(Cl)c(Cl)c1)P(=O)(O)O [Example 161] | 1360 ± 50
76 | CCC(C)C(S)C(=O)Nc1ccc(OC)cc1 (centres unmarked) [Example 44] | 17000 ± 2000
77 | CCC(S)C(=O)Nc1ccc(OC)cc1 (centres unmarked) [Example 19] | 4200 ± 600
78 | CC(C)CC(C(=O)N[C@H](C(=O)Nc1ccc(Cl)c(Cl)c1)C1CCCCC1)P(=O)(O)O (some centres unmarked) [Example 156] | 12
79 | CC(C)CC(C(=O)NC1CCN(c2ccc(Cl)cc2)CC1)P(=O)(O)O (centres unmarked) [Example 103] | 1910 ± 110
80 | CC(C)CC(C(=O)Nc1ccc(OCc2ccc(Cl)c(Cl)c2)cc1)n1nccn1 (centres unmarked) [Example 179] | 30000
81 | COc1ccccc1NC(=O)C(S)CC(C)C (centres unmarked) [Example 32] | 700 ± 40

Same assay, conditions: IC50 against LasB (Table 16), heteropentacycles and benzannulated heteropentacycles

Row | SMILES | IC50 [nM]
82 | CC(C)CC(C(=O)N[C@H](c1ncc(-c2ccc(Cl)c(Cl)c2)[nH]1)C(C)C)P(=O)(O)O (mixture of isomers) [Example 171, (1-(((S)-1-(5-(3,4-dichlorophenyl)-1H-imidazol-2-yl)-2-methylpropyl)amino)-4-methyl-1-oxopentan-2-yl)phosphonic acid] | 6000 ± 200

Same assay, conditions: read-out: IC50 against LasB

Row | SMILES | IC50 [nM]
83 | O=C(Nc1ccc(Cl)c(Cl)c1)C(S)CC1CC1 (centres unmarked) [Example 45] | 6300 ± 1200
84 | O=C(Nc1nc2ccc(Cl)cc2s1)C(S)Cc1ccccc1 (centres unmarked) [Example 57] | 2400 ± 200
85 | Cc1ccc(CC(S)C(=O)Nc2ccccc2)cc1 (centres unmarked) [Example 13] | 2800 ± 300
86 | COC(=O)c1ccsc1NC(=O)C(S)Cc1ccccc1 (centres unmarked) [Example 59] | 8000 ± 1000
87 | O=C(Nc1ccc(Cl)c(Cl)c1)C(S)CC1CCCCC1 (centres unmarked) [Example 47] | 12000 ± 3000
88 | O=C(Nc1nccs1)C(S)Cc1ccccc1 (centres unmarked) [Example 58] | 1600 ± 100
89 | O=C(Nc1cccnc1)C(S)Cc1ccccc1 (centres unmarked) [Example 60] | 1200 ± 100
